Experimental data published in PubChem BioAssay AID248 (DTP/NCI, 2004).
Values joined by “and” are separate entries in the source; they are usually repeats but may differ in a detail not shown here. Equal values may be shown once. Inconclusive results and toxic doses are left out.

Tested on: L1210 leukemia ip in BDF1 mice, survival T/C
Test: NCI In Vivo Anticancer Drug Screen. Data for tumor model L1210 Leukemia (intraperitoneal) in B6D2F1 (BDF1) mice
Details: higher = longer survival
In short: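 Transplanted-tumor mice were given test agent; controls received vehicle only. Survival readings from the two groups were divided (treated over control).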

[1] = endpoint: mean survival time, dose: 100.0 mg/kg/injection, schedule: Q04DX003 (ip), vehicle: Klucel (hydroxypropylcellulose) (HPC)
[2] = endpoint: mean survival time, dose: 200.0 mg/kg/injection, schedule: Q04DX003 (ip), vehicle: Klucel (hydroxypropylcellulose) (HPC)
[3] = endpoint: mean survival time, dose: 100.0 mg/kg/injection, schedule: Q01DX009 (ip), vehicle: Klucel (hydroxypropylcellulose) (HPC)
[4] = endpoint: mean survival time, dose: 100.0 mg/kg/injection, schedule: Q01DX001 (ip), vehicle: carboxymethylcellulose (CMC)
[5] = endpoint: mean survival time, dose: 200.0 mg/kg/injection, schedule: Q01DX001 (ip), vehicle: carboxymethylcellulose (CMC)
[6] = endpoint: mean survival time, dose: 400.0 mg/kg/injection, schedule: Q01DX001 (ip), vehicle: carboxymethylcellulose (CMC)

## Cc1cc(C)c(NC(=O)N(CCCl)N=O)c(C)c1
endpoint: mean survival time, dose: 11.25 mg/kg/injection, schedule: Q01DX001 (ip), vehicle: other
  T/C: 155 % of control
endpoint: mean survival time, dose: 15.0 mg/kg/injection, schedule: Q01DX001 (ip), vehicle: other
  T/C: 150 % of control
endpoint: mean survival time, dose: 16.0 mg/kg/injection, schedule: Q01DX001 (ip), vehicle: other
  T/C: 174 % of control
endpoint: mean survival time, dose: 20.0 mg/kg/injection, schedule: Q01DX001 (ip), vehicle: other
  T/C: 203 % of control
endpoint: mean survival time, dose: 22.5 mg/kg/injection, schedule: Q01DX001 (ip), vehicle: other
  T/C: 234 % of control
endpoint: mean survival time, dose: 25.0 mg/kg/injection, schedule: Q01DX001 (ip), vehicle: other
  T/C: 166 % of control
endpoint: mean survival time, dose: 30.0 mg/kg/injection, schedule: Q01DX001 (ip), vehicle: other
  T/C: 191 % of control
endpoint: mean survival time, dose: 31.0 mg/kg/injection, schedule: Q01DX001 (ip), vehicle: other
  T/C: 165 % of control
endpoint: mean survival time, dose: 38.0 mg/kg/injection, schedule: Q01DX001 (ip), vehicle: other
  T/C: 201 % of control
endpoint: mean survival time, dose: 45.0 mg/kg/injection, schedule: Q01DX001 (ip), vehicle: other
  T/C: 252 % of control and 322 % of control
endpoint: mean survival time, dose: 57.0 mg/kg/injection, schedule: Q01DX001 (ip), vehicle: other
  T/C: 262 % of control
endpoint: mean survival time, dose: 62.0 mg/kg/injection, schedule: Q01DX001 (ip), vehicle: other
  T/C: 217 % of control
endpoint: mean survival time, dose: 86.0 mg/kg/injection, schedule: Q01DX001 (ip), vehicle: other
  T/C: 227 % of control
endpoint: mean survival time, dose: 90.0 mg/kg/injection, schedule: Q01DX001 (ip), vehicle: other
  T/C: 100 % of control

## C=C1CC(c2ccccc2)(c2cccs2)OC1=O (centres undefined)
[1]
  T/C: 98 % of control
[2]
  T/C: 96 % of control

## Cc1cc([N+](=O)[O-])ccc1NC(=O)Nc1cccc(F)c1
[3]
  T/C: 96 % of control
endpoint: mean survival time, dose: 100.0 mg/kg/injection, schedule: Q04DX002 (ip), vehicle: Klucel (hydroxypropylcellulose) (HPC)
  T/C: 90 % of control
[1]
  T/C: 95 % of control
endpoint: mean survival time, dose: 200.0 mg/kg/injection, schedule: Q01DX009 (ip), vehicle: Klucel (hydroxypropylcellulose) (HPC)
  T/C: 94 % of control
endpoint: mean survival time, dose: 200.0 mg/kg/injection, schedule: Q04DX002 (ip), vehicle: Klucel (hydroxypropylcellulose) (HPC)
  T/C: 88 % of control
[2]
  T/C: 95 % of control
endpoint: mean survival time, dose: 400.0 mg/kg/injection, schedule: Q01DX009 (ip), vehicle: Klucel (hydroxypropylcellulose) (HPC)
  T/C: 88 % of control
endpoint: mean survival time, dose: 400.0 mg/kg/injection, schedule: Q04DX002 (ip), vehicle: Klucel (hydroxypropylcellulose) (HPC)
  T/C: 88 % of control
endpoint: mean survival time, dose: 400.0 mg/kg/injection, schedule: Q04DX003 (ip), vehicle: Klucel (hydroxypropylcellulose) (HPC)
  T/C: 95 % of control

## CC(=O)N(C)c1ccc(NC(=O)Nc2ccc(F)cc2)cc1
[4]
  T/C: 97 % of control
endpoint: mean survival time, dose: 100.0 mg/kg/injection, schedule: Q01DX009 (ip), vehicle: carboxymethylcellulose (CMC)
  T/C: 95 % of control and 103 % of control
endpoint: mean survival time, dose: 100.0 mg/kg/injection, schedule: Q04DX002 (ip), vehicle: carboxymethylcellulose (CMC)
  T/C: 95 % of control and 97 % of control and 90 % of control
endpoint: mean survival time, dose: 100.0 mg/kg/injection, schedule: Q04DX003 (ip), vehicle: carboxymethylcellulose (CMC)
  T/C: 104 % of control
[5]
  T/C: 96 % of control
endpoint: mean survival time, dose: 200.0 mg/kg/injection, schedule: Q01DX009 (ip), vehicle: carboxymethylcellulose (CMC)
  T/C: 101 % of control and 103 % of control
endpoint: mean survival time, dose: 200.0 mg/kg/injection, schedule: Q04DX002 (ip), vehicle: carboxymethylcellulose (CMC)
  T/C: 93 % of control and 96 % of control and 87 % of control
endpoint: mean survival time, dose: 200.0 mg/kg/injection, schedule: Q04DX003 (ip), vehicle: carboxymethylcellulose (CMC)
  T/C: 107 % of control
[6]
  T/C: 106 % of control
endpoint: mean survival time, dose: 400.0 mg/kg/injection, schedule: Q01DX009 (ip), vehicle: carboxymethylcellulose (CMC)
  T/C: 95 % of control and 101 % of control
endpoint: mean survival time, dose: 400.0 mg/kg/injection, schedule: Q04DX002 (ip), vehicle: carboxymethylcellulose (CMC)
  T/C: 97 % of control and 98 % of control and 104 % of control
endpoint: mean survival time, dose: 400.0 mg/kg/injection, schedule: Q04DX003 (ip), vehicle: carboxymethylcellulose (CMC)
  T/C: 98 % of control

## Cc1cc(=O)[nH]c(/N=C(\N)Nc2ccc(Cl)cc2)n1
endpoint: mean survival time, dose: 100.0 mg/kg/injection, schedule: Q04DX002 (ip), vehicle: saline
  T/C: 93 % of control
endpoint: mean survival time, dose: 200.0 mg/kg/injection, schedule: Q04DX002 (ip), vehicle: saline
  T/C: 99 % of control
endpoint: mean survival time, dose: 400.0 mg/kg/injection, schedule: Q04DX002 (ip), vehicle: saline
  T/C: 96 % of control

## c1ccc(CCNc2ncnc3[nH]ncc23)cc1
endpoint: mean survival time, dose: 12.0 mg/kg/injection, schedule: Q01DX015 (ip), vehicle: carboxymethylcellulose (CMC)
  T/C: 97 % of control
endpoint: mean survival time, dose: 25.0 mg/kg/injection, schedule: Q01DX015 (ip), vehicle: carboxymethylcellulose (CMC)
  T/C: 97 % of control
endpoint: mean survival time, dose: 50.0 mg/kg/injection, schedule: Q01DX015 (ip), vehicle: carboxymethylcellulose (CMC)
  T/C: 95 % of control

## COC(=O)C[C@](O)(CCC(C)(C)O)C(=O)O[C@@H]1C(OC)=C[C@]23CCCN2CCc2cc4c(cc2[C@H]13)OCO4
endpoint: mean survival time, dose: 0.13 mg/kg/injection, schedule: Q#A X018 (ip), vehicle: saline
  T/C: 116 % of control
endpoint: mean survival time, dose: 0.25 mg/kg/injection, schedule: Q01DX009 (ip), vehicle: saline
  T/C: 104 % of control and 117 % of control and 124 % of control
endpoint: mean survival time, dose: 0.25 mg/kg/injection, schedule: Q01DX009 (ip), vehicle: water
  T/C: 118 % of control
endpoint: mean survival time, dose: 0.25 mg/kg/injection, schedule: Q03HX008 (ip), vehicle: saline
  T/C: 109 % of control
endpoint: mean survival time, dose: 0.25 mg/kg/injection, schedule: Q03HX016 (ip), vehicle: saline
  T/C: 113 % of control
endpoint: mean survival time, dose: 0.25 mg/kg/injection, schedule: Q03HX024 (ip), vehicle: saline
  T/C: 118 % of control
endpoint: mean survival time, dose: 0.25 mg/kg/injection, schedule: Q#A X018 (ip), vehicle: saline
  T/C: 114 % of control
endpoint: mean survival time, dose: 0.5 mg/kg/injection, schedule: Q01DX009 (oral), vehicle: saline
  T/C: 105 % of control
endpoint: mean survival time, dose: 0.5 mg/kg/injection, schedule: Q01DX009 (sc), vehicle: saline
  T/C: 110 % of control
endpoint: mean survival time, dose: 0.5 mg/kg/injection, schedule: Q03HX008 (ip), vehicle: saline
  T/C: 116 % of control
endpoint: mean survival time, dose: 0.5 mg/kg/injection, schedule: Q03HX016 (ip), vehicle: saline
  T/C: 107 % of control
endpoint: mean survival time, dose: 0.5 mg/kg/injection, schedule: Q03HX024 (ip), vehicle: saline
  T/C: 119 % of control
endpoint: mean survival time, dose: 0.5 mg/kg/injection, schedule: Q#A X018 (ip), vehicle: saline
  T/C: 122 % of control
endpoint: mean survival time, dose: 1.0 mg/kg/injection, schedule: Q01DX009 (oral), vehicle: saline
  T/C: 111 % of control
endpoint: mean survival time, dose: 1.0 mg/kg/injection, schedule: Q01DX009 (sc), vehicle: saline
  T/C: 121 % of control
endpoint: mean survival time, dose: 1.0 mg/kg/injection, schedule: Q03HX008 (ip), vehicle: saline
  T/C: 124 % of control
endpoint: mean survival time, dose: 2.0 mg/kg/injection, schedule: Q01DX001 (ip), vehicle: saline
  T/C: 113 % of control
endpoint: mean survival time, dose: 2.0 mg/kg/injection, schedule: Q01DX009 (oral), vehicle: saline
  T/C: 112 % of control
endpoint: mean survival time, dose: 2.0 mg/kg/injection, schedule: Q04DX003 (ip), vehicle: saline
  T/C: 105 % of control
endpoint: mean survival time, dose: 2.0 mg/kg/injection, schedule: Q08DX002 (ip), vehicle: saline
  T/C: 101 % of control
endpoint: mean survival time, dose: 2.0 mg/kg/injection, schedule: Q#A X018 (ip), vehicle: saline
  T/C: 113 % of control
endpoint: mean survival time, dose: 4.0 mg/kg/injection, schedule: Q01DX001 (ip), vehicle: saline
  T/C: 110 % of control
endpoint: mean survival time, dose: 4.0 mg/kg/injection, schedule: Q01DX009 (ip), vehicle: saline
  T/C: 119 % of control and 124 % of control
endpoint: mean survival time, dose: 4.0 mg/kg/injection, schedule: Q01DX009 (oral), vehicle: saline
  T/C: 98 % of control
endpoint: mean survival time, dose: 4.0 mg/kg/injection, schedule: Q01DX009 (sc), vehicle: saline
  T/C: 92 % of control
endpoint: mean survival time, dose: 4.0 mg/kg/injection, schedule: Q04DX003 (ip), vehicle: saline
  T/C: 123 % of control
endpoint: mean survival time, dose: 4.0 mg/kg/injection, schedule: Q08DX002 (ip), vehicle: saline
  T/C: 107 % of control
endpoint: mean survival time, dose: 8.0 mg/kg/injection, schedule: Q01DX001 (ip), vehicle: saline
  T/C: 117 % of control
endpoint: mean survival time, dose: 8.0 mg/kg/injection, schedule: Q04DX003 (ip), vehicle: saline
  T/C: 87 % of control
endpoint: mean survival time, dose: 8.0 mg/kg/injection, schedule: Q08DX002 (ip), vehicle: saline
  T/C: 107 % of control
endpoint: mean survival time, dose: 16.0 mg/kg/injection, schedule: Q08DX002 (ip), vehicle: saline
  T/C: 98 % of control
endpoint: median survival time, dose: 0.25 mg/kg/injection, schedule: Q01DX009 (ip), vehicle: saline
  T/C: 100 % of control and 101 % of control
endpoint: median survival time, dose: 0.5 mg/kg/injection, schedule: Q01DX009 (ip), vehicle: saline
  T/C: 105 % of control and 107 % of control
endpoint: median survival time, dose: 1.0 mg/kg/injection, schedule: Q01DX009 (ip), vehicle: saline
  T/C: 110 % of control and 115 % of control

## Cc1cccc(N=Cc2ccccc2O)c1
endpoint: mean survival time, dose: 50.0 mg/kg/injection, schedule: Q01DX009 (ip), vehicle: saline with Tween-80
  T/C: 99 % of control
[4]
  T/C: 95 % of control
endpoint: mean survival time, dose: 100.0 mg/kg/injection, schedule: Q01DX009 (ip), vehicle: saline with Tween-80
  T/C: 97 % of control
[5]
  T/C: 97 % of control
endpoint: mean survival time, dose: 200.0 mg/kg/injection, schedule: Q01DX009 (ip), vehicle: saline with Tween-80
  T/C: 95 % of control
[6]
  T/C: 103 % of control

## O=C(NNc1ccccc1)Nc1ccccc1
[3]
  T/C: 107 % of control
